Columns and labels:
Assay in all cases: relative viability (nuclei count vs DMSO), 5 days (fraction); higher = more cells survive
[1] = compound: Cn1cc(-c2cnn3c(N)c(Br)c([C@@H]4CCCNC4)nc23)cn1 + COc1cc2c(Oc3ccc(NC(=O)C4(C(=O)Nc5ccc(F)cc5)CC4)cc3F)ccnc2cc1OCCCN1CCOCC1 [Foretinib] (partner 0.25 µM)
Method in brief: (§1)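 The day after seeding in 1536-well plates, lung cancer cell lines were treated by pin tool with a single drug, or with a fixed anchor-drug dose together with five library-drug doses (not always all listed) in √10 steps. After 5 days, a combined fix-and-stain solution (final 0.05% Triton X-100, 1% formaldehyde, 1 ug/ml Hoechst) was added. Nuclei counted on 4× images gave relative viability as treated counts over vehicle counts, reported as the median of duplicate plates.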

[2] = compound: Cn1cc(-c2cnn3c(N)c(Br)c([C@@H]4CCCNC4)nc23)cn1 + Cc1cc(Nc2cc(N3CCN(C)CC3)nc(Sc3ccc(NC(=O)C4CC4)cc3)n2)n[nH]1 [Tozasertib] (partner 0.1 µM)
Method in brief: as §1

[3] = compound: Cn1cc(-c2cnn3c(N)c(Br)c([C@@H]4CCCNC4)nc23)cn1 + NC(=O)Nc1cc(-c2cccc(F)c2)sc1C(=O)N[C@H]1CCCNC1 [AZD7762] (partner 0.2 µM)
Method in brief: as §1

[4] = compound: Cn1cc(-c2cnn3c(N)c(Br)c([C@@H]4CCCNC4)nc23)cn1 + CCNC(=O)c1noc(-c2cc(C(C)C)c(O)cc2O)c1-c1ccc(CN2CCOCC2)cc1 [Luminespib] (partner 0.01 µM)
Method in brief: as §1

NCI-H1355 showed a relative viability ([1]; first compound 0.05 µM) of 1.05, a relative viability ([1]; first compound 0.1581 µM) of 1.21 and a relative viability ([1]; first compound 0.5 µM) of 0.967. The relative viability ([1]; first compound 1.581 µM) was 0.89, the relative viability ([1]; first compound 5 µM) was 0.955 and the relative viability ([2]; first compound 0.05 µM) was 0.553. The relative viability ([2]; first compound 0.1581 µM) was 0.614, the relative viability ([2]; first compound 0.5 µM) was 0.509 and the relative viability ([2]; first compound 1.581 µM) was 0.45. The relative viability ([2]; first compound 5 µM) was 0.423, the relative viability ([3]; first compound 0.05 µM) was 0.718 and the relative viability ([3]; first compound 0.1581 µM) was 0.846. It also gave a relative viability ([3]; first compound 0.5 µM) of 0.672, a relative viability ([3]; first compound 1.581 µM) of 0.623 and a relative viability ([3]; first compound 5 µM) of 0.458. For the same cell line, the relative viability ([4]; first compound 0.05 µM) was 0.691, the relative viability ([4]; first compound 0.1581 µM) was 0.662 and the relative viability ([4]; first compound 0.5 µM) was 0.699. It also gave a relative viability ([4]; first compound 1.581 µM) of 0.609 and a relative viability ([4]; first compound 5 µM) of 0.735.

In the case of NCI-H1395, the relative viability ([1]; first compound 0.05 µM) is reported as 0.99, the relative viability ([1]; first compound 0.1581 µM) is reported as 0.94 and the relative viability ([1]; first compound 0.5 µM) is reported as 0.914. The relative viability ([1]; first compound 1.581 µM) was 0.589, the relative viability ([1]; first compound 5 µM) was 0.455 and the relative viability ([2]; first compound 0.05 µM) was 0.804. It also gave a relative viability ([2]; first compound 0.1581 µM) of 0.68, a relative viability ([2]; first compound 0.5 µM) of 0.789 and a relative viability ([2]; first compound 1.581 µM) of 0.543. For the same cell line, the relative viability ([2]; first compound 5 µM) was 0.436, the relative viability ([3]; first compound 0.05 µM) was 0.397 and the relative viability ([3]; first compound 0.1581 µM) was 0.393. The relative viability ([3]; first compound 0.5 µM) was 0.372, the relative viability ([3]; first compound 1.581 µM) was 0.372 and the relative viability ([3]; first compound 5 µM) was 0.351. It also gave a relative viability ([4]; first compound 0.05 µM) of 0.762, a relative viability ([4]; first compound 0.1581 µM) of 0.536 and a relative viability ([4]; first compound 0.5 µM) of 0.687. The relative viability ([4]; first compound 1.581 µM) was 0.349 and the relative viability ([4]; first compound 5 µM) was 0.379.

In the case of NCI-H1437, the relative viability ([1]; first compound 0.05 µM) is reported as 1.24, the relative viability ([1]; first compound 0.1581 µM) is reported as 1.4 and the relative viability ([1]; first compound 0.5 µM) is reported as 1.41. For the same cell line, the relative viability ([1]; first compound 1.581 µM) was 1.32, the relative viability ([1]; first compound 5 µM) was 1.19 and the relative viability ([2]; first compound 0.05 µM) was 0.414. For the same cell line, the relative viability ([2]; first compound 0.1581 µM) was 0.46, the relative viability ([2]; first compound 0.5 µM) was 0.402 and the relative viability ([2]; first compound 1.581 µM) was 0.361. It also gave a relative viability ([2]; first compound 5 µM) of 0.381, a relative viability ([3]; first compound 0.05 µM) of 1.11 and a relative viability ([3]; first compound 0.1581 µM) of 1.18. For the same cell line, the relative viability ([3]; first compound 0.5 µM) was 1.08, the relative viability ([3]; first compound 1.581 µM) was 1.01 and the relative viability ([3]; first compound 5 µM) was 0.889. The relative viability ([4]; first compound 0.05 µM) was 1.13, the relative viability ([4]; first compound 0.1581 µM) was 1.2 and the relative viability ([4]; first compound 0.5 µM) was 1.19. For the same cell line, the relative viability ([4]; first compound 1.581 µM) was 0.932 and the relative viability ([4]; first compound 5 µM) was 0.861.

For NCI-H1651, the relative viability ([1]; first compound 0.05 µM) was 0.828, the relative viability ([1]; first compound 0.1581 µM) was 1 and the relative viability ([1]; first compound 0.5 µM) was 0.887. For the same cell line, the relative viability ([1]; first compound 1.581 µM) was 0.496, the relative viability ([1]; first compound 5 µM) was 0.213 and the relative viability ([2]; first compound 0.05 µM) was 0.586. The relative viability ([2]; first compound 0.1581 µM) was 0.721, the relative viability ([2]; first compound 0.5 µM) was 0.641 and the relative viability ([2]; first compound 1.581 µM) was 0.429. It also gave a relative viability ([2]; first compound 5 µM) of 0.176, a relative viability ([3]; first compound 0.05 µM) of 0.436 and a relative viability ([3]; first compound 0.1581 µM) of 0.407. For the same cell line, the relative viability ([3]; first compound 0.5 µM) was 0.387, the relative viability ([3]; first compound 1.581 µM) was 0.378 and the relative viability ([3]; first compound 5 µM) was 0.219. For the same cell line, the relative viability ([4]; first compound 0.05 µM) was 0.721, the relative viability ([4]; first compound 0.1581 µM) was 0.767 and the relative viability ([4]; first compound 0.5 µM) was 0.848. For the same cell line, the relative viability ([4]; first compound 1.581 µM) was 0.327 and the relative viability ([4]; first compound 5 µM) was 0.195.

From the supplement of paper PMC10307832
